Laboratory results from patent US9434705B2, “L-setastine hydrochloride and preparation method thereof” (ANHUI QINGYUN PHARMACEUTICAL & CHEMICAL CO., LTD., priority 2011, dated 2016).

Legend:
[1] = inventors' finding on antihistaminic effect and sedation of D-setastine hydrochloride; settings: result in words
guinea pigs [2] = experiment: histamine-induced death of guinea pigs after oral dosing of test sample; assay type: in vivo, guinea pig; settings: for Number of death: gavage for two days, then histamine 20 mg/kg, deaths within 24 hours, + = died next day; for Death Percentage: histamine 20 mg/kg; for protective effect on histamine-induced death for guinea pigs: 0.16-0.68 mg/kg, result in words
Description: 1. Sample name: KL-001 (R-setastine hydrochloride prepared in embodiment 6), KL-002 (L-setastine hydrochloride prepared from embodiment 2, 3, 4, 5, or 6), and KL-003 (setastine hydrochloride racemic) provided by Anhui Kelong medicine research institute).
2. The specifications of content: There are three groups of each sample, which is high, medium, and small-dose group, wherein dosages for high, medium, small-dose group are 0.68 mg/kg, 0.32 mg/kg, and 0.16 mg/kg respectively. The dosages are considerable 20, 10, and 5 times comparing with the clinical dosages.
3. The preparation method for test sample: For the KL-001 sample, 84 ml of distilled water is added to KL-001 sample so as to obtain a large-dose group of KL-001, which is according to the gavage feeding volume of guinea pigs, which is 0.1 ml/100 g, which is the same as 0.68 mg/kg; and medium and small-does group of KL-001 are diluted by the high-dose group of KL-001 for double and quadruple times. For the KL-002 sample, 125 ml of distilled water is added to KL-002 sample to obtain a large-dose group of KL-002, which is according to the gavage feeding volume of guinea pigs, which is 0.1 ml/100 g, which is the same as 0.68 mg/kg; and medium and small-does group are diluted by the high-dose group for double and quadruple times. For KL-003 sample, 75 ml of distilled water is added to KL-003 sample so as to obtain a large-dose group of KL-003, which is according to the gavage feeding volume of guinea pigs, which is 0.1 ml/100 g, which is the same as 0.68 mg/kg; and medium and small-does group of KL-003 are diluted by the high-dose group of Kl-003 for double and quadruple times.
112 guinea pigs are fed in the feeding environment (to adapt in the environment) for three days, and are randomly divided into 10 groups, namely a control group, a high-dose group of KL-001, a medium-dose group of KL-001, a small-dose group of KL-001, a high-dose group of KL-002, a medium-dose group of KL-002, a small-dose group of KL-002, a high-dose group of KL-003, a medium-dose group of KL-003, and a small-dose group of KL-003. The dosage for high-dose group of Kl-001, KL-002, and Kl-003 is 0.68 mg/kg, and the dosage for medium-dose group of Kl-001, KL-002, and Kl-003 is 0.32 mg/kg, and the dosage for small-dose group of Kl-001, KL-002, and Kl-003 is 0.16 mg/kg, which are 20, 10, 5 times respectively comparing with the clinical dose. Each guinea pig from each group is fed by corresponding amounts of test sample for two days, which is according to the amount of 0.1 ml/100 g. Finally, each guinea pig is fed with lethal dose of histamine, which is 20 mg/kg after the last injection of test sample, and then observing the number of deaths of guinea pigs within 24 hours.

patients = settings: racemic drug, China market; cited from earlier work
guinea pigs [3] = settings: background statement; cited from earlier work

Compound | antihistaminic effect [1] | side effects of sedation [1] | Number of death (guinea pigs [2]; 0.16 mg/kg (small dose)) | Death Percentage (guinea pigs [2]; 0.16 mg/kg (small dose)) | Number of death (guinea pigs [2]; 0.32 mg/kg (medium dose)) | Death Percentage (guinea pigs [2]; 0.32 mg/kg (medium dose)) | Number of death (guinea pigs [2]; 0.68 mg/kg (high dose)) | Death Percentage (guinea pigs [2]; 0.68 mg/kg (high dose)) | protective effect on histamine-induced death for guinea pigs (guinea pigs [2]) | protective effect on histamine-induced death for guinea pigs (guinea pigs [2]; listed as D-setastine hydrochloride) | protective effect on histamine-induced death for guinea pigs (guinea pigs [2]; listed as Kl-001) | protective effect on histamine-induced death for guinea pigs (guinea pigs [2]; listed as setastine hydrochloride racemic) | sedative side effects in clinical use (patients) | histamine-induced bronchial spasms (guinea pigs [3]) | protective effect on histamine-induced death for guinea pigs (guinea pigs [2]; listed as L-setastine hydrochloride) | protective effect compared with setastine hydrochloride racemic (guinea pigs [2]; comparison in words)
CC(OCCN1CCCCCC1)(c1ccccc1)c1ccc(Cl)cc1.Cl (stereo not drawn) | no antihistaminic effect | can produce side effects of sedation | 11 | 100% | 11 | 100% | 11 | 100% | doesn't has the protective effect | no protective effect | doesn't has protective effect |  |  |  |  | 
CC(OCCN1CCCCCC1)(c1ccccc1)c1ccc(Cl)cc1 (racemic) [KL-003] |  |  | 6 + 2 | 66% | 3 + 1 | 36% | 1 + 1 | 16% | significant protective effect |  |  | have protective effects | stronger sedative side effects | inhibit |  | 
C[C@@](OCCN1CCCCCC1)(c1ccccc1)c1ccc(Cl)cc1 [KL-002] |  |  | 4 + 1 | 45% | 2 | 18% | 0 | 0% | significant protective effect |  |  |  |  |  | have protective effects | stronger
